From patent US20050277617A1, “Drugs against articular failure” (KABUSHIKI KAISHA HAYASHIBARA SEIBUTSU KAGAKU KENKYUJO, priority 2000, published 2005)

Tested on: arthritis induced rat
Test: Arthritis induced by type II collagen immunization in rats; increasing rate of hind foot volume
Assay type: in vivo
Conditions: for Enhancement of the alleviation effect of amino sugars on arthritis: Experiment 3, saccharide used instead of trehalose in the design of Experiment 1; for Judgment (symbol) of the effect of alleviating arthritis / Relative value of the average of increasing rate of hind foot volume when the average in the control group was regarded as 100: Experiment 1, daily until day 24, GlcN or GlcNAc 100, Ch4S 50, Trehalose 200 mg/kg body weight/day, female Lewis rats
Text: Thirty-six female Lewis rats, aged 6-weeks, were divided into 12 groups consisting of three rats per group. Glucosamine, N-acetylglucosamine, chondroitin 4-sulfate, and crystalline hydrous trehalose, which were all in a reagent grade, and designated as “test compounds” hereinafter), were respectively dissolved in phosphate buffer saline (described as “PBS” hereinafter), and intraperitoneally injected alone or in an appropriate combination daily to the rats of the group Nos. 1 to 11 at the doses in the following Table 2. As a control, PBS was administrated daily to each rat of the group No. 12 at a dose of 1 ml per day by the same administration route as above. Hereinafter, the day number means a day counted from the starting day of administration. In accordance with the method of inducing arthritis by type II collagen immunization described by K. Terato, in “Biomedical research”, Vol. 3, pp. 495-505, 1982, on day 3, 800 μg/head of a type II collagen from bovine in a reagent grade along with Freund's incomplete adjuvant was administered to the dorsal subcutaneous; and on day 10, a fresh preparation of the same collagen and adjuvant as used above were administered at a dose of about 1/10 of that of on day 3. Test compounds were administered to the rats daily until day 24.
During the term of the above experiment, on day 3 just before the administration of collagen and on day 24 just after the administration of the test compounds, both hind foot volumes of every rat were measured according to the method described by D. T. Walz in “Journal of Experimental Therapy”, Vol. 152, pp. 116-121, 1971. Increasing rate (%) of the total hind foot volume of each rat was calculated by substituting the data for the Formula 1 below. Increasing rate of hind foot volume (%)=[{(Measured volume on day 24)−(Measured volume on day 3)}/(Measured volume on day 3)]×100 Formula 1
The effect of alleviating arthritis for each test compound was judged on the basis of the criterion described in the following Table 1, after calculating the averages of increased rates of hind foot volumes in the rats of the group Nos. 1 to 11 and the relative values of the above averages when the average in the control group was regarded as 100. The results are in Table 2
As a result, the effect of glucosamine or N-acetylglucosamine with trehalose was judged as high (symbol “+”) even with the tested minimum amount of 5 mg/kg body weight/day. […]

| Molecule | Enhancement of the alleviation effect of amino sugars on arthritis | Judgment (symbol) of the effect of alleviating arthritis (intraperitoneal) | Relative value of the average of increasing rate of hind foot volume when the average in the control group was regarded as 100 (intraperitoneal) | also measured |
| --- | --- | --- | --- | --- |
| OC[C@H]1O[C@H](O[C@H]2[C@H](O)[C@@H](O)C(O)O[C@@H]2CO)[C@H](O)[C@@H](O)[C@@H]1O (mixture of isomers) [maltose] | no enhanced effect |  |  |  |
| N[C@H]1C(O)O[C@H](CO)[C@@H](O)[C@@H]1O (some centres unmarked) [GlcN, glucosamine] |  | − (67 or more) | 88 |  |
| CC(=O)N[C@H]1C(O)O[C@H](CO)[C@@H](O)[C@@H]1O (some centres unmarked) [GlcNAc, N-acetylglucosamine] |  | − (67 or more) | 89 |  |
| OC[C@H]1O[C@H](O[C@H]2O[C@H](CO)[C@@H](O)[C@H](O)[C@H]2O)[C@H](O)[C@@H](O)[C@@H]1O [Trehalose, trehalose] |  | − (67 or more) | 98 | Increasing rate of hind foot volume compared with the control group (Experiment 1, group No. 6, trehalose alone 200 mg/kg body weight/day, intraperitoneal): No difference |
| COc1ccc2c(c1)c(CC(=O)O)c(C)n2C(=O)c1ccc(Cl)cc1 [indomethacin] |  |  |  | Increasing rate of hind foot volume (3 mg/kg body weight, some rats, data not shown): < 20% |
| OC[C@@H](O)[C@@H](O[C@H]1O[C@H](CO)[C@@H](O)[C@H](O)[C@H]1O)[C@H](O)[C@@H](O)CO [maltitol] | no enhanced effect |  |  |  |
| OC[C@H]1O[C@@H](O[C@H]2O[C@H](CO)[C@@H](O)[C@H](O)[C@H]2O)[C@H](O)[C@@H](O)[C@@H]1O [neotrehalose] | no enhanced effect |  |  |  |
| OC[C@@H](O)[C@@H](O)[C@H](O)[C@@H](O)CO [sorbitol] | no enhanced effect |  |  |  |
| chondroitin 4-sulfate [Ch4S] |  | − (67 or more) | 95 |  |
